{
  "source": "PubChem BioAssay AID1259407",
  "about": "(Chemical Carcinogenesis Research Information System (CCRIS), 2018)",
  "tested_on": "CCRIS mutagenicity, Ames/micronucleus/aberration tests",
  "test": "CCRIS mutagenicity studies",
  "key": {"[1]": {"settings": "Test System: AMES SALMONELLA TYPHIMURIUM, Strain/Indicator: TA98, Metabolic Activation: NONE, Method: STANDARD PLATE"}, "[2]": {"settings": "Test System: AMES SALMONELLA TYPHIMURIUM, Strain/Indicator: TA100, Metabolic Activation: NONE, Method: STANDARD PLATE"}, "[3]": {"settings": "Test System: AMES SALMONELLA TYPHIMURIUM, Strain/Indicator: TA97, Metabolic Activation: NONE, Method: PREINCUBATION"}, "[4]": {"settings": "Test System: AMES SALMONELLA TYPHIMURIUM, Strain/Indicator: TA98, Metabolic Activation: NONE, Method: PREINCUBATION"}, "[5]": {"settings": "Test System: AMES SALMONELLA TYPHIMURIUM, Strain/Indicator: TA100, Metabolic Activation: NONE, Method: PREINCUBATION"}},
  "note": "Active and inactive are the calls of the source. How the calls were made is not given here.",
  "data": [
    {"molecule": "Cc1ccc2[nH]c3c(C)cc([N+](=O)[O-])c(C)c3c2c1", "values": [
      {"measurement": "mutagenic call", "setting": "[1]", "value": "active; positive"},
      {"measurement": "mutagenic call", "setting": "Test System: AMES SALMONELLA TYPHIMURIUM, Strain/Indicator: TA98, Metabolic Activation: RAT LIVER S-9, AROCLOR 1254, Method: STANDARD PLATE", "value": "active; positive"},
      {"measurement": "mutagenic call", "setting": "[2]", "value": "inactive; negative"},
      {"measurement": "mutagenic call", "setting": "Test System: AMES SALMONELLA TYPHIMURIUM, Strain/Indicator: TA100, Metabolic Activation: RAT LIVER S-9, AROCLOR 1254, Method: STANDARD PLATE", "value": "inactive; negative"},
      {"measurement": "mutagenic call", "setting": "Test System: AMES SALMONELLA TYPHIMURIUM, Strain/Indicator: TA1537, Metabolic Activation: RAT LIVER S-9, AROCLOR 1254, Method: STANDARD PLATE", "value": "active; positive"},
      {"measurement": "mutagenic call", "setting": "Test System: AMES SALMONELLA TYPHIMURIUM, Strain/Indicator: TA1977, Metabolic Activation: NONE, Method: STANDARD PLATE", "value": "inactive; negative"},
      {"measurement": "mutagenic call", "setting": "Test System: AMES SALMONELLA TYPHIMURIUM, Strain/Indicator: TA1977, Metabolic Activation: RAT LIVER S-9, AROCLOR 1254, Method: STANDARD PLATE", "value": "active; positive"}
    ]},
    {"molecule": "CCNC(=O)CC[C@H](N)C(=O)O", "values": [
      {"measurement": "mutagenic call", "setting": "[3]", "value": "inactive; negative"},
      {"measurement": "mutagenic call", "setting": "Test System: AMES SALMONELLA TYPHIMURIUM, Strain/Indicator: TA97, Metabolic Activation: RAT, LIVER, S-9, AROCLOR 1254, Method: PREINCUBATION", "value": "inactive; negative"},
      {"measurement": "mutagenic call", "setting": "Test System: AMES SALMONELLA TYPHIMURIUM, Strain/Indicator: TA102, Metabolic Activation: NONE, Method: PREINCUBATION", "value": "inactive; negative"},
      {"measurement": "mutagenic call", "setting": "Test System: AMES SALMONELLA TYPHIMURIUM, Strain/Indicator: TA102, Metabolic Activation: RAT, LIVER, S-9, AROCLOR 1254, Method: PREINCUBATION", "value": "inactive; negative"}
    ]},
    {"molecule": "CN(C)c1ccc(C(=N)c2ccc(N(C)C)cc2)cc1", "values": [
      {"measurement": "mutagenic call", "setting": "Test System: AMES SALMONELLA TYPHIMURIUM, Strain/Indicator: TA97, Metabolic Activation: NONE, Method: STANDARD PLATE", "value": "inactive; negative"},
      {"measurement": "mutagenic call", "setting": "Test System: AMES SALMONELLA TYPHIMURIUM, Strain/Indicator: TA97, Metabolic Activation: RAT, LIVER, S-9, AROCLOR 1254, Method: STANDARD PLATE", "value": "inactive; negative"},
      {"measurement": "mutagenic call", "setting": "Test System: AMES SALMONELLA TYPHIMURIUM, Strain/Indicator: TA98, Metabolic Activation: HAMSTER, LIVER, S-9, AROCLOR 1254 (30%), Method: PREINCUBATION", "value": "active; positive"},
      {"measurement": "mutagenic call", "setting": "[4]", "value": "inactive; negative"},
      {"measurement": "mutagenic call", "setting": "[1]", "value": "inactive; negative"},
      {"measurement": "mutagenic call", "setting": "Test System: AMES SALMONELLA TYPHIMURIUM, Strain/Indicator: TA98, Metabolic Activation: RAT, LIVER, S-9, AROCLOR 1254 (30%), Method: PREINCUBATION", "value": "active; positive"},
      {"measurement": "mutagenic call", "setting": "Test System: AMES SALMONELLA TYPHIMURIUM, Strain/Indicator: TA98, Metabolic Activation: RAT, LIVER, S-9, AROCLOR 1254, Method: STANDARD PLATE", "value": "inactive; negative"},
      {"measurement": "mutagenic call", "setting": "Test System: AMES SALMONELLA TYPHIMURIUM, Strain/Indicator: TA100, Metabolic Activation: HAMSTER, LIVER, S-9, AROCLOR 1254 (30%), Method: PREINCUBATION", "value": "inactive; negative"},
      {"measurement": "mutagenic call", "setting": "[5]", "value": "inactive; negative"},
      {"measurement": "mutagenic call", "setting": "[2]", "value": "inactive; negative"},
      {"measurement": "mutagenic call", "setting": "Test System: AMES SALMONELLA TYPHIMURIUM, Strain/Indicator: TA100, Metabolic Activation: RAT, LIVER, S-9, AROCLOR 1254 (30%), Method: PREINCUBATION", "value": "inactive; negative"},
      {"measurement": "mutagenic call", "setting": "Test System: AMES SALMONELLA TYPHIMURIUM, Strain/Indicator: TA100, Metabolic Activation: RAT, LIVER, S-9, AROCLOR 1254, Method: STANDARD PLATE", "value": "inactive; negative"},
      {"measurement": "mutagenic call", "setting": "Test System: AMES SALMONELLA TYPHIMURIUM, Strain/Indicator: TA1538, Metabolic Activation: HAMSTER, LIVER, S-9, AROCLOR 1254 (30%), Method: PREINCUBATION", "value": "active; positive"},
      {"measurement": "mutagenic call", "setting": "Test System: AMES SALMONELLA TYPHIMURIUM, Strain/Indicator: TA1538, Metabolic Activation: RAT, LIVER, S-9, AROCLOR 1254 (30%), Method: PREINCUBATION", "value": "active; positive"},
      {"measurement": "mutagenic call", "setting": "Test System: CHINESE HAMSTER V-79, Strain/Indicator: V-79/6-THIOGUANINE, Metabolic Activation: NONE, Method: SUSPENSION/PLATE", "value": "inactive; negative"},
      {"measurement": "mutagenic call", "setting": "Test System: CHINESE HAMSTER V-79, Strain/Indicator: V-79/6-THIOGUANINE, Metabolic Activation: RAT, LIVER, S-9, PHENOBARBITAL AND BETA-NAPHTHOFLAVONE, Method: SUSPENSION/PLATE", "value": "active; positive"}
    ]},
    {"molecule": "CCS(=O)CCSP(=O)(OC)OC", "note": "(centres undefined)", "values": [
      {"measurement": "mutagenic call", "setting": "Test System: AMES SALMONELLA TYPHIMURIUM, Strain/Indicator: TA97, Metabolic Activation: HAMSTER, LIVER, S-9, AROCLOR 1254 (10%), Method: PREINCUBATION", "value": "inactive; negative"},
      {"measurement": "mutagenic call", "setting": "[3]", "value": "inactive; negative"},
      {"measurement": "mutagenic call", "setting": "Test System: AMES SALMONELLA TYPHIMURIUM, Strain/Indicator: TA97, Metabolic Activation: RAT, LIVER, S-9, AROCLOR 1254 (10%), Method: PREINCUBATION", "value": "inactive; negative"},
      {"measurement": "mutagenic call", "setting": "Test System: AMES SALMONELLA TYPHIMURIUM, Strain/Indicator: TA98, Metabolic Activation: HAMSTER, LIVER, S-9, AROCLOR 1254 (10%), Method: PREINCUBATION", "value": "inactive; negative"},
      {"measurement": "mutagenic call", "setting": "[4]", "value": "inactive; negative"},
      {"measurement": "mutagenic call", "setting": "Test System: AMES SALMONELLA TYPHIMURIUM, Strain/Indicator: TA98, Metabolic Activation: RAT, LIVER, S-9, AROCLOR 1254 (10%), Method: PREINCUBATION", "value": "inactive; negative"},
      {"measurement": "mutagenic call", "setting": "Test System: AMES SALMONELLA TYPHIMURIUM, Strain/Indicator: TA100, Metabolic Activation: HAMSTER, LIVER, S-9, AROCLOR 1254 (10%), Method: PREINCUBATION", "value": "active; positive"},
      {"measurement": "mutagenic call", "setting": "[5]", "value": "inactive; negative"},
      {"measurement": "mutagenic call", "setting": "Test System: AMES SALMONELLA TYPHIMURIUM, Strain/Indicator: TA100, Metabolic Activation: RAT, LIVER, S-9, AROCLOR 1254 (10%), Method: PREINCUBATION", "value": "active; positive"},
      {"measurement": "mutagenic call", "setting": "Test System: AMES SALMONELLA TYPHIMURIUM, Strain/Indicator: TA1535, Metabolic Activation: HAMSTER, LIVER, S-9, AROCLOR 1254 (10%), Method: PREINCUBATION", "value": "active; positive"},
      {"measurement": "mutagenic call", "setting": "Test System: AMES SALMONELLA TYPHIMURIUM, Strain/Indicator: TA1535, Metabolic Activation: NONE, Method: PREINCUBATION", "value": "active; positive"},
      {"measurement": "mutagenic call", "setting": "Test System: AMES SALMONELLA TYPHIMURIUM, Strain/Indicator: TA1535, Metabolic Activation: RAT, LIVER, S-9, AROCLOR 1254 (10%), Method: PREINCUBATION", "value": "active; positive"}
    ]},
    {"molecule": "CCNCC#CC(C)(C)OC(=O)C(O)(c1ccccc1)C1CCCCC1", "note": "(centres undefined)", "values": [
      {"measurement": "mutagenic call", "setting": "[1]", "value": "inactive; negative"},
      {"measurement": "mutagenic call", "setting": "Test System: AMES SALMONELLA TYPHIMURIUM, Strain/Indicator: TA98, Metabolic Activation: RAT, LIVER, S-9, PHENOBARBITAL AND 5,6-BENZOFLAVONE, Method: STANDARD PLATE", "value": "inactive; negative"},
      {"measurement": "mutagenic call", "setting": "[2]", "value": "inactive; negative"},
      {"measurement": "mutagenic call", "setting": "Test System: AMES SALMONELLA TYPHIMURIUM, Strain/Indicator: TA100, Metabolic Activation: RAT, LIVER, S-9, PHENOBARBITAL AND 5,6-BENZOFLAVONE, Method: STANDARD PLATE", "value": "inactive; negative"},
      {"measurement": "mutagenic call", "setting": "Test System: AMES SALMONELLA TYPHIMURIUM, Strain/Indicator: TA1535, Metabolic Activation: NONE, Method: STANDARD PLATE", "value": "inactive; negative"},
      {"measurement": "mutagenic call", "setting": "Test System: AMES SALMONELLA TYPHIMURIUM, Strain/Indicator: TA1535, Metabolic Activation: RAT, LIVER, S-9, PHENOBARBITAL AND 5,6-BENZOFLAVONE, Method: STANDARD PLATE", "value": "inactive; negative"},
      {"measurement": "mutagenic call", "setting": "Test System: AMES SALMONELLA TYPHIMURIUM, Strain/Indicator: TA1537, Metabolic Activation: NONE, Method: STANDARD PLATE", "value": "inactive; negative"},
      {"measurement": "mutagenic call", "setting": "Test System: AMES SALMONELLA TYPHIMURIUM, Strain/Indicator: TA1537, Metabolic Activation: RAT, LIVER, S-9, PHENOBARBITAL AND 5,6-BENZOFLAVONE, Method: STANDARD PLATE", "value": "inactive; negative"},
      {"measurement": "mutagenic call", "setting": "Test System: E. COLI, Strain/Indicator: WP2 UVRA, Metabolic Activation: NONE, Method: STANDARD PLATE", "value": "inactive; negative"},
      {"measurement": "mutagenic call", "setting": "Test System: E. COLI, Strain/Indicator: WP2 UVRA, Metabolic Activation: RAT, LIVER, S-9, PHENOBARBITAL AND 5,6-BENZOFLAVONE, Method: STANDARD PLATE", "value": "inactive; negative"}
    ]}
  ]
}
